{"source": "patent US20240365783A1", "about": "“HERBICIDAL MALONAMIDES” (BASF SE, priority 2021, published 2024)", "assay_type_in_all_cases": "in vivo", "key": {"[1]": {"system": "Digitaria sanguinalis (DIGSA)", "experiment": "greenhouse pre-emergence herbicidal test, DIGSA", "conditions": "pre-emergence method, application rate 0.250 kg/ha, scale from 0 to 100", "text": "(§1) The culture containers used were plastic flowerpots containing loamy sand with approximately 3.0% of humus as the substrate. The seeds of the test plants were sown separately for each species.\n(§2) For the pre-emergence treatment, the active ingredients, which had been suspended or emulsified in water, were applied directly after sowing by means of finely distributing nozzles. The containers were irrigated gently to promote germination and growth and subsequently covered with transparent plastic hoods until the test plants had rooted. This cover caused uniform germination of the test plants, unless this had been impaired by the active ingredients.\n(§3) Depending on the species, the test plants were kept at 10-25° C. or 20-35° C., respectively.\n(§4) The test period extended over 2 to 4 weeks. During this time, the test plants were tended, and their response to the individual treatments was evaluated.\n(§5) Evaluation was carried out using a scale from 0 to 100. 100 means no emergence of the test plants, or complete destruction of at least the aerial moieties, and 0 means no damage, or normal course of growth. A good herbicidal activity is given at values of 70 to <90 and a very good herbicidal activity is given at values of 90 to 100.\n(§6) The test plants used in the greenhouse experiments were of the following species: […]"}, "[2]": {"system": "Lolium multiflorum (LOLMU)", "experiment": "greenhouse pre-emergence herbicidal test, LOLMU", "conditions": "pre-emergence method, application rate 0.250 kg/ha, scale from 0 to 100", "text": "as §1, §2, §3, §4, §5, §6"}, "[3]": {"system": "Avena fatua (AVEFA)", "experiment": "greenhouse post-emergence herbicidal test, AVEFA", "conditions": "post-emergence method, application rate 0.500 kg/ha, scale from 0 to 100", "text": "as §1\n(§7) For the post-emergence treatment, the test plants were first grown to a height of 3 to 15 cm, depending on the plant habit, and only then treated with the active ingredients which had been suspended or emulsified in water. For this purpose, the test plants were either sown directly and grown in the same containers, or they were first grown separately as seedlings and transplanted into the test containers a few days prior to treatment.\nas §3, §4, §5, §6"}, "[4]": {"system": "Apera spica-venti (APESV)", "experiment": "greenhouse pre-emergence herbicidal test, APESV", "conditions": "pre-emergence method, application rate 0.500 kg/ha, scale from 0 to 100", "text": "as §1, §2, §3, §4, §5, §6"}, "[5]": {"system": "Setaria viridis (SETVI)", "experiment": "greenhouse post-emergence herbicidal test, SETVI", "conditions": "post-emergence method, application rate 0.500 kg/ha, scale from 0 to 100", "text": "as §1, §7, §3, §4, §5, §6"}, "[6]": {"system": "Alopercurus myosuroides (ALOMY)", "experiment": "greenhouse post-emergence herbicidal test, ALOMY", "conditions": "post-emergence method, application rate 0.500 kg/ha, scale from 0 to 100", "text": "as §1, §7, §3, §4, §5, §6"}, "[7]": {"system": "Abutilon theophrasti (ABUTH)", "experiment": "greenhouse pre-emergence herbicidal test, ABUTH", "conditions": "pre-emergence method, scale from 0 to 100", "text": "as §1, §2, §3, §4, §5, §6"}, "[8]": {"system": "Abutilon theophrasti (ABUTH)", "experiment": "greenhouse post-emergence herbicidal test, ABUTH", "conditions": "post-emergence method, application rate 0.250 kg/ha, scale from 0 to 100", "text": "as §1, §7, §3, §4, §5, §6"}}}
{"smiles": "CC(C)(C(=O)Nc1cccc(OC(F)(F)F)c1)C(=O)N[C@H]1C=C[C@@H](C(=O)O)C1", "note": "(relative stereo) [Compound 1.79]", "values": [{"measurement": "herbicidal activity against DIGSA", "setting": "[1]", "value": "good (A good herbicidal activity is given at values of 70 to <90)"}]}
{"smiles": "CC(C)(C(=O)Nc1cc(Cl)cc(Cl)c1)C(=O)N[C@H]1C=C[C@@H](C(=O)O)C1", "note": "(relative stereo) [Compound 1.80]", "values": [{"measurement": "herbicidal activity against LOLMU", "setting": "[2]", "value": "good (A good herbicidal activity is given at values of 70 to <90)"}]}
{"smiles": "COC(=O)CC(C)NC(=O)C(C)(C)C(=O)Nc1cc(Cl)cc(Cl)c1", "note": "(stereo not drawn) [Compound 1.1]", "values": [{"measurement": "herbicidal activity against AVEFA", "setting": "[3]", "value": "very good (a very good herbicidal activity is given at values of 90 to 100)"}, {"measurement": "herbicidal activity against APESV", "setting": "[4]", "value": "very good (a very good herbicidal activity is given at values of 90 to 100)"}, {"measurement": "herbicidal activity against SETVI", "setting": "[5]", "value": "very good (a very good herbicidal activity is given at values of 90 to 100)"}, {"measurement": "herbicidal activity against ALOMY", "setting": "[6]", "value": "very good (a very good herbicidal activity is given at values of 90 to 100)"}, {"measurement": "herbicidal activity against ABUTH", "setting": "[7]; application rate 0.500 kg/ha", "value": "good (A good herbicidal activity is given at values of 70 to <90)"}]}
{"smiles": "COC(=O)C1C=CC(NC(=O)C(C)(C)C(=O)Nc2cccc(I)c2)C1", "note": "(stereo not drawn) [Compound 1.4]", "values": [{"measurement": "herbicidal activity against ABUTH", "setting": "[8]", "value": "good (A good herbicidal activity is given at values of 70 to <90)"}]}
{"smiles": "CCc1cccc(NC(=O)C(C)(C)C(=O)NC(C)CCC(=O)OC)c1", "note": "(stereo not drawn) [Compound 1.19]", "values": [{"measurement": "herbicidal activity against ABUTH", "setting": "[7]; application rate 0.250 kg/ha", "value": "good (A good herbicidal activity is given at values of 70 to <90)"}]}
